From US20190077774A1, “PEROXISOME PROLIFERATOR-ACTIVATED RECEPTOR AGONISTS” (City of Hope, priority 2017, published 2019) come the findings set out here.

Test [1] relates to PPARα target genes in the liver. Description: Liver gene expression of PPARα targets in treated mice (RT-qPCR). The class given is in vivo. An excerpt:
FIG. 6. […] Data in same order as triglyceride suppression (FIG. 5). apo CIII and LPL expression inversely correlate with triglyceride suppression for many, but not all, compounds. ACOX1 and Cyp4A3 expression correlate with triglyceride suppression for many, but not all, compounds.
The following oligonucleotide primers were used to amplify insertion sequences: for PPARα, FW-5′-[…]-3′ (SEQ ID NO:1) and Rev-5′-[…]-3′ (SEQ ID NO:2); for RXRα, FW-5′ […]-3′ (SEQ ID NO:3) and Rev-5′-[…]-3′ (SEQ ID NO:4). It has been well established that PPARα agonists fibrates reduce plasma triglycerides largely by inducing hepatic PPARα-mediated transcription of key proteins in hepatic long-chain fatty acid […], such as CPT1 (carnitine palmitoyltransferase-1). DY121 promoted the expression of PPARα, CPT1, and LPL involved in free fatty acid β-oxidation. The mRNA expressions of the PPARα-regulated genes CPT-Ia and ACADM were measured by real-time quantitative-PCR (RT-qPCR). […] A structural specificity of DY121 may be responsible for this regulation. PPARα is predominantly expressed in liver. PPARα modulates fatty acid catabolism in the liver. We next measured the mRNA expression of PPARα target genes in the liver. PPARα agonists exert their actions and attributed to the activation of PPARα which in turn effects an increase in LPL (lipoprotein lipase) gene expression and transrepression of apoC-III (apolipoprotein C-III). Activation of PPARα by its modulators can increase PPARα levels and activate PPARα pathways, leading to increased fatty-acid oxidation and reduction of oxidative stress. DY121 and its analogs induced the expression of PPARα-regulated genes involved in lipid, glucose, and cholesterol metabolism, such as ACOX1 (acyl-CoA oxidase) and Cyp4A3 (cytochrome P450 gene subfamily). Members of the CYP4A gene subfamily catalyze the oxygenation of biologically important fatty acids.
Next, we would like to investigate the therapeutic potential of DY121 to see if it could be candidate for treating NAFLD/NASH. Note that the pathogenesis of NASH has not yet been fully elucidated so far; however, the ‘two-hit’ theory is widely accepted. The first hit is the accumulation of fatty acids in the liver to cause steatosis. […] The newly produced PPARα agonist DY121 and its analogs, as well as WY100=WY14643 and GW3 (GW7647), were evaluated in C57Bl/6J female mice for their ability to alter serum triglyceride, liver gene expression, and glucose. Fibric acid derivatives (100 mg/kg/day) was used as a control, WY100 (WY14, 643, 100 mg/kg/day), GW3 (GW7647-positive control, 3 mg/kg/day), DY121 (˜3 mg/kg/day), respectively. […]
Background: In qPCR the cycle at which signal appears reflects the starting amount.

For another test, the target named is T1, mouse PPARα (Mus musculus, UniProt P23204).
T1 construct: expressed in transfected cells; host or cells: CV-1 (monkey kidney) cells, transient transfection
T1 sequence (P23204 159-468): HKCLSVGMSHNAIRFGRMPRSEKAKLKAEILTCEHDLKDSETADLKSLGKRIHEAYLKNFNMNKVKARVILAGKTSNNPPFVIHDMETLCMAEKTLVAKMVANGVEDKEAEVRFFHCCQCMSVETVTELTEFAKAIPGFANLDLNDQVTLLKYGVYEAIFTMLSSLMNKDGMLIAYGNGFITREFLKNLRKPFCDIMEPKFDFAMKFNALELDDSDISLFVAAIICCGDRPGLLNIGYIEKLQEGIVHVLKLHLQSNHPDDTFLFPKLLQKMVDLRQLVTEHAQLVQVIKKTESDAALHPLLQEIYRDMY
Description: PPAR-GAL4 transactivation assay in transiently transfected CV-1 cells. The class given is cell-based. The conditions noted are these: PPAR-GAL4 chimeric receptor, read-out: EC50(nM) mPPARα. The protocol: To assess the functional transcriptional activity of these compounds, cell-based assays using chimeric receptor Gal4 DNA-binding domain (DBD)-NR ligand binding domain cotransfection assay (LBDs of PPARα, PPARγ, and PPARδ) were performed. As an initial screen to determine the PPARα activity and selectivity, all compounds were evaluated for in vitro potency and selectivity by transfection testing, using CV-1 cells transfected with human and mouse PPARs. MH100×4 is a luciferase reporter with four copies of a GAL4 UASG response element, where GAL-I refers to the ligand-binding domain of the indicated receptor fused to the C-terminus of the GAL4 DNA-binding domain. Assays were performed using a Biomek automated workstation in which the genes for the nuclear receptor, as well as a plasmid containing a response element upstream of a luciferase cDNA, are transfected into CV-1 cells. Compounds were evaluated for their ability to activate human and mouse PPARs at […] test concentrations. […] The transactivation activity of the series of compounds (DY121-132, 10a-g) toward PPARα was expressed as EC50, which is the concentration of the test compound that affords half-maximum activity, as summarized in Table 1.
In vitro binding and transfection studies. As an initial screen to determine the PPARα, PPARγ, and PPARδ activity, all compounds were evaluated for in vitro potency and selectivity by transfection testing, using CV-1 cells transfected with human and mouse PPARs. MH100×4 is a luciferase reporter with four copies of a GAL4 USAG response element, where GAL-I refers to the ligand-binding domain of the indicated receptor fused to the C-terminus of the GAL4 DNA-binding domain. Assays were performed using a Biomek automated workstation in which the gene for the nuclear receptor, as well as a plasmid containing a response element upstream of a luciferase cDNA, are transfected into CV-1 cells. Compounds were evaluated for their ability to activate human PPARs at 1, 2.5, 3, and 5 uM test concentrations.
Compounds were screened for agonist activity towards PPAR-GAL4 chimeric receptors in transiently transfected CV-1 cells as described. EC50 is the concentration of test compound that gave 50% maximum efficacy.

SMILES strings stand for the structures.

A word on the EC50: it is the midpoint of the concentration-response curve. For `COc1ccc(Cn2c(CCCc3ccc(OC(C)(C)C(=O)O)cc3)nn(Cc3ccc(C)cc3)c2=O)cc1` [10a, 2-(4-{3-[4-(4-Methoxy-benzyl)-1-(4-methyl-benzyl)-5-oxo-4,5-dihydro-1H[1,2,4]triazol-3-yl]-propyl}-phenoxy)-2-methyl-propionic acid], in test [1] (RT-qPCR), the “expression of PPARα, CPT1, and LPL” value is reported as “promoted”; the “expression of PPARα-regulated genes such as ACOX1 and Cyp4A3” value was “induced”. In addition, the “liver CPT-Ia expression” value in test [1] (chronic (>3 d) treatment (FIG. 17)) is “upregulated”. In addition, in test [1] (liver, chronic treatment (FIG. 11)), the LPL expression entry was “enhanced expression of LPL”. For the same compound, the ACOX1 expression entry in test [1] (liver, chronic treatment (FIG. 12)) is “enhanced by PPARα activation, most consistently”. The Cyp4A3 expression entry in test [1] (liver, chronic treatment (FIG. 13)) is listed as “consistently”. Also, the apoCIII expression entry in test [1] (liver, chronic treatment up to 7 days (FIG. 11)) was “significantly suppressed expression of apoCIII at each time point”. The ACADM expression entry in test [1] (time course (FIG. 18)) was “upregulates”. Moreover, the “CYP4A3 mRNA in the liver” value in test [1] (wild-type and PPARα knockout mice) was “enhanced levels of CYP4A3 mRNA in the liver of wild-type but not PPARα knockout mice”. For the same compound, on mouse PPARα, the EC50 was found to be 3 nM.
